Where “and” joins values, the source holds several entries; their conditions need not be identical. Equal entries are not always repeated. Entries after “also recorded” stand apart in the source; their conditions may differ.
What was measured:
[1] = system: U266, H929, MM1.S, MM1.R and RPMI-8226 MM cell lines; test: MM cell line proliferation / cytotoxicity assay (CellTiter-Glo or MTS); assay type: cell-based; conditions: range over five MM cell lines, 96 h incubation; read-out: EC50 of inhibition of cell proliferation
Experimental: Omacetaxine was tested in MM cell lines in vitro and in MM patient bone marrow aspirates ex vivo. The reported cytotoxicity of omacetaxine was verified in cell culture using the U266, H929, MM1.S, MM1.R and RPMI-8226 MM cell lines. […] In a timecourse study, omacetaxine-mediated induction of apoptosis started at 2 h, and cell death began after 24 h (FIGS. 1B, 1C, and 2A).
(§1) Either CellTiter-Glo Luminescent Cell Viability or CellTiter 96 AQueous MTS Cell Proliferation assay (Promega, Madison Wis.) were used to generate dose response curves of myeloma cell line proliferation treated with various anti-myeloma agents. Working solutions of CellTiter-Glo or CellTiter AQueous reagent were prepared per manufacturer instructions. Cells were combined with drug of interest at a concentration of 50,000 cells/well and incubated in 96-well culture plates at 37° C. for 96 h. After the incubation, the viability or proliferation results were obtained via Vmax Kinetic Microplate Reader (Molecular Devices, Sunnyvale Calif.). Cell line toxicity was also measured using high throughput flow cytometry.

MM1.S cells = test: Timecourse of apoptosis and cell death by Annexin V and DAPI flow cytometry; assay type: cell-based
Excerpt: FIG. 2A depicts the timecourse of induction of apoptosis and cell death by omacetaxine in MM1.S cells as measured by Annexin V and DAPI staining by flow cytometry.
FIG. 10A depicts the timecourse of induction of apoptosis and cell death by pomalidomide in MM1.S cells as measured by annexin V and DAPI staining by flow cytometry.

MCL1 = test: Quantitative intracellular flow cytometry of MCL1; assay type: cell-based; conditions: 50 nM, 6 h
Experimental: (§2) Quantitative flow cytometry was used to measure MCL1 and BCL2 densities per cell. Anti-MCL1 and anti-BCL2 antibodies were labeled with Alexa Fluor 647 (Molecular Probes/life Technologies) according to manufacturer's instructions. Intracellular staining of MCL1 and BCL2 was conducted following permeabilization with the Cytofix/Cytoperm kit (BD). Mean fluorescence intensity was converted to molecules of equivalent soluble fluorochrome (MESF) by generating a standard curve with Quantum™ beads (Bangs Labs, Fishers, Ind.). The fluorophore-to-antibody ratio of the labeled antibodies was determined using Simply Cellular® anti-mouse IgG beads (Bangs Labs). Finally, conversion of MESF to cell surface antigen density was calculated by dividing by the fluorophore-to-antibody ratio.

BCL2 = test: Quantitative intracellular flow cytometry of BCL2; assay type: cell-based; conditions: 50 nM, 6 h
Experimental: as §2

MM cell lines [2] = test: Two-drug combination matrix in MM cell lines, ZIP synergy; assay type: cell-based
Experimental: In this example, possible candidates for use in combination with omacetaxine were examined, focusing on those that are currently clinically available. Omacetaxine was applies in combination with various anti-myeloma agents to MM cell lines Amo-1, L363, and U266 in two-drug combination matrices, with cell viability being measured after 96 h incubation. […] The […] for synergy of omacetaxine with Len and Pom were 13.89 and 11.24, respectively, with a broad range of concentrations showing a productive interaction (FIGS. 6B and 6D).
as §1
(§3) Drug combination studies were set up using a full matrix design with myeloma cell lines or primary samples. Synergy was calculated using ZIP delta score via the SnergyFinder online tool (synergyfinder.fimm.fi). Combination index values were calculated using the CompuSyn software (ComboSyn Inc).

[3] = system: IMiD-resistant relapsed MM patient sample; test: Two-drug combination matrix in primary MM patient sample, ZIP synergy; assay type: cell-based, human
Experimental: as §3

[4] = system: luc-MM1.S cells in NSG mice; test: In vivo protein translation (puromycin incorporation) in luc-MM1.S xenograft; conditions: 1, 2 or 3 mg/kg IP; greatest effect at 3 mg/kg
Experimental: To extend the findings to an in vivo model, the effects of omacetaxine were examined using a firefly luciferase-expressing myeloma cell line, MM1.S (luc-MM1.S) to generate xenografts in NSG mice. The pharmacodynamics of omacetaxine were studied in this model. Mice were injected with luc-MM1.S cells and allowed to establish disease, followed by treatment with 1, 2, or 3 mg/kg omacetaxine, or with the vehicle control by intraperitoneal (IP) injection, followed by puromycin injection one hour later, and sacrificed 1.5 hours later, with bone marrow harvest and […] incorporation by flow cytometry (FIG. 9A).
Protein synthesis levels were determined in vitro utilizing the puromycin analog O-propargyl-puromycin (OP-Puro) in the protein synthesis assay kit (Cayman Chemical) according to manufacturer instructions. […]
For in vivo assessment of omacetaxine, 5×10^5 MM1.S cells stably expressing firefly luciferase were injected intravenously into NSG mice (Jackson Labs, Bar Harbor, Me.) to generate an orthometastatic MM xenograft model. […] Tumor status was assessed by BLI, and the results were analyzed by Living Image (PerkinElmer). Following treatment, the mice were continuously monitored for survival endpoints.

[5] = system: bone marrow plasma cells from normal donors; test: Sensitivity of healthy donor bone marrow plasma cells; assay type: cell-based; conditions: 50 nM, 48 h incubation
MM cell lines [6] = test: Two-drug combination matrix in MM cell lines, ZIP synergy; assay type: cell-based; remark: listed apart in the source

Question: Which results are given for `COC(=O)C[C@](O)(CCCC(C)(C)O)C(=O)O[C@@H]1C(OC)=C[C@]23CCCN2CCc2cc4c(cc2[C@H]13)OCO4` [omacetaxine, Omacetaxine mepesuccinate]?
Answer: EC50 [1]: 15 to 35 nM; time at which cell death began (MM1.S cells): 24 h; time at which induction of apoptosis started (MM1.S cells): 2 h; MCL1 expression in myeloma cells (MCL1): rapidly downregulated; Bcl-2 level in myeloma cells (BCL2): does not decrease; combination with dexamethasone versus single agent omacetaxine (MM cell lines [2]; L363 and U266 cells): decreased activity; synergy with lenalidomide (cell viability) (MM cell lines [2]; combination with Len, 96 h): synergistic in all cell lines tested; synergy with pomalidomide (cell viability) (MM cell lines [2]; omacetaxine combined with Pom, 96 h): synergistic in all cell lines tested; synergy with dexamethasone, over cell lines tested (MM cell lines [2]; three MM cell lines): synergistic in only ⅓ MM cell lines tested; effect of combination with Pom on IMiD sensitivity of patient MM cells ([3]; IMiD-resistant relapsed patient sample): re-sensitized; ZIP δ-score for synergy with Pom in patient sample ([3]; IMiD-resistant relapsed patient sample HTB-576): 22.68 and 22.7; protein translation rate in luc-MM1.S cells in vivo [4]: dose-dependent decrease; cytotoxicity to normal plasma cells [5]: cytotoxic; synergy with CC-220 (MM cell lines [6]; H929 cells): synergistic; combination with dexamethasone (MM cell lines [6]; MM.1S cells): synergistic; ZIP δ-score for synergy with Len (MM cell lines [6]; combination with lenalidomide, MM.1S cells, 96 h): 13.89; ZIP δ-score for synergy with Pom (MM cell lines [6]; omacetaxine with pomalidomide, MM.1S cells, 96 h): 11.24; synergy with the PI bortezomib (MM cell lines [6]; three MM cell lines (U266, MM.1S, H929)): lack of synergy; also recorded: no significant enhanced activity
